# Entries after “also recorded” stand apart in the source; their conditions may differ. Read-outs that look alike come from different tables or passages of the source. Marks after values point to notes of the source that are not given here.
# Assays:
# monoamine transporter = assay: Monoamine transporter uptake activity; type: cell-based; details: FIG. 23
# D2S dopamine receptor = D2S dopamine receptor (Homo sapiens (Human), UniProt P14416); assay: GIRK channel activation, whole cell voltage clamp, AtT-20 cells stably expressing D2S; type: cell-based; details: for GIRK channel activation: agonist type: versus full agonist quinpirole
# Chain of D2S dopamine receptor (P14416 other isoform, or with tags, fused parts or gaps): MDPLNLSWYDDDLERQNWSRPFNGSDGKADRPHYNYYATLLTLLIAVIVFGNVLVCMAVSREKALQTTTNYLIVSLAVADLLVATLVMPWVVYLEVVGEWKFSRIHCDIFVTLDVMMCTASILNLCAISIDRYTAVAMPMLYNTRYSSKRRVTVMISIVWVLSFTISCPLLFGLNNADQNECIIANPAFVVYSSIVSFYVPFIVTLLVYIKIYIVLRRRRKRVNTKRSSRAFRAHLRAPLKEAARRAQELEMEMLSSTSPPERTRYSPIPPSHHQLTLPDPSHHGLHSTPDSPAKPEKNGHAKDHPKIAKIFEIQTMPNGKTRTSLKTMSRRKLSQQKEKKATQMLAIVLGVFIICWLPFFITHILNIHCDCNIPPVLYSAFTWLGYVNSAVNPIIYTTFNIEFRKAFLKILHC
# Protocol: The activation of the GIRK channels was measured electrophysiologically using whole cell voltage clamp recording (Kuzhikandathil et al., 2004, Mol. Cell. Neurosci. 26:144-155). The GIRK channel responses elicited with new ligands were compared to quinpirole, a classical full agonist of D2, D3 and D4 dopamine receptors. The adenylyl cyclase inhibition was determined using a commercially available ELISA assay (Westrich & Kuzhikandathil, 2007, Biochim. Biophys. Acta-Mol. Cell. Res. 1773:1747-1758).
# In the first assay, whole cell voltage clamp recording is used to measure GIRK response to increasing concentrations of the lead compound (0.01 nM to 3,000 nM dose range). The EC50 values for each receptor subtype is determined by fitting the data points using the Hill equation.
# AtT-20 mouse pituitary cells were grown in Ham's F10 medium with 5% FBS, 10% heat-inactivated horse serum, 2 mM glutamine and 50 μg/ml gentamicin (Invitrogen, Carlsbad, Calif.). AtT-20 cells stabling expressing the human D2S, D2L, D3, and D4.2 and receptor were maintained in the above F10 culture media supplemented with 500 μg/ml G418 (Invitrogen). For electrophysiological characterization, cells were plated onto glass coverslips coated with 40 μg/ml poly L-lysine (Sigma-Aldrich). The generation and characterization of the AtT-20 cells stably expressing various human dopamine receptors have been previously reported (Kuzhikandathil & Oxford, 2000, J. Gen. Physiol. 115:697-706; Kuzhikandathil et al., 1998, Mol. Cell. Neurosci. 12:390-402; Kuzhikandathil & Bartoszyk, 2006, Neuropharm. 51:873-884; Westrich & Kuzhikandathil, 2007, Biochim. Biophys. Acta-MCR 1773:1747-1758; Kuzhikandathil et al., 2004, Mol. Cell. Neurosci. 26:144-155; Westrich et al., 2010, Biochem. Pharmacol. 79:897-907).
# Agonist-activated currents were measured by the whole-cell patch clamp technique in voltage clamp and current clamp mode as described previously (Kuzhikandathil & Oxford, 2000, J. Gen. Physiol. 115:697-706; Kuzhikandathil et al., 1998, Mol. Cell. Neurosci. 12:390-402; Kuzhikandathil & Bartoszyk, 2006, Neuropharm. 51:873-884; Westrich & Kuzhikandathil, 2007, Biochim. Biophys. Acta-MCR 1773:1747-1758; Kuzhikandathil et al., 2004, Mol. Cell. Neurosci. 26:144-155; Westrich et al., 2010, Biochem. Pharmacol. 79:897-907). Drug solutions were delivered to cells via a multi-barreled micropipette array. The current responses were normalized to the cell capacitance, to account for variation in cell size.
# To compare the functional effects of the new class of D3 receptor agonists, PBZI (Table 2) and ES609 (Table 3) were tested on AtT-20 cells stably expressing human D3, D2S, D2L or D4.2. Functional efficacy was determined by assessing the ability of PBZI and ES609 to inhibit adenylyl cyclase or activate GIRK channels coupled to these “D2-like” dopamine receptors. The EC50 values of PBZI and ES609 for inhibiting adenylyl cyclase and activating GIRK channels were in the range of 0.2 nM to 30 nM for D3 receptors.
# D4.2 dopamine receptor = D4.2 dopamine receptor (Homo sapiens (Human), UniProt P21917, DEL265-296); type: cell-based
# Chain of D4.2 dopamine receptor (P21917 other isoform, or with tags, fused parts or gaps del 265-296): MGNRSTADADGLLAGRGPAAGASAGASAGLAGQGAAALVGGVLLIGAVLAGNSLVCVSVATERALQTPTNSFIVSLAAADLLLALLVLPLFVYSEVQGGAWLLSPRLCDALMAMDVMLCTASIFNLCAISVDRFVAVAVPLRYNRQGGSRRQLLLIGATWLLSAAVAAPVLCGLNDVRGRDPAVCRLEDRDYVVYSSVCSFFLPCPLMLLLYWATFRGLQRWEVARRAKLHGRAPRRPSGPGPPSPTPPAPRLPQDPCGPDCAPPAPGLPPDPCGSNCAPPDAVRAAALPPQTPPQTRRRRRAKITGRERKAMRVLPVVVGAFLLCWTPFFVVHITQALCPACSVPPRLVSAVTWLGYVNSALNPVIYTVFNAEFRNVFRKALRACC
# Protocol: The EC50 values for each receptor subtype is determined by fitting the data points using the Hill equation.
# AtT-20 mouse pituitary cells were grown in Ham's F10 medium with 5% FBS, 10% heat-inactivated horse serum, 2 mM glutamine and 50 μg/ml gentamicin (Invitrogen, Carlsbad, Calif.). AtT-20 cells stabling expressing the human D2S, D2L, D3, and D4.2 and receptor were maintained in the above F10 culture media supplemented with 500 μg/ml G418 (Invitrogen). For electrophysiological characterization, cells were plated onto glass coverslips coated with 40 μg/ml poly L-lysine (Sigma-Aldrich). […] Physiol. […] Neurosci. […] Biophys. […] Neurosci.
# Drug solutions were delivered to cells via a multi-barreled micropipette array. The current responses were normalized to the cell capacitance, to account for variation in cell size.
# To compare the functional effects of the new class of D3 receptor agonists, PBZI (Table 2) and ES609 (Table 3) were tested on AtT-20 cells stably expressing human D3, D2S, D2L or D4.2.
# D3 dopamine receptor [1] = target: T1, D3 dopamine receptor (Homo sapiens (Human), UniProt P35462); assay: D3 receptor tolerance and SRT: GIRK response to repeated agonist application in AtT-20 cells; type: cell-based; details: AtT-20 cells expressing human D3, 100-300 nM agonist, repeated ~60 s applications
# Protocol: To determine whether a compound abolishes the D3 receptor tolerance and SRT, the D3 receptor-activated GIRK response to two consecutive treatments of the lead compound is measured. […] Drug solutions were delivered to cells via a multi-barreled micropipette array. The current responses were normalized to the cell capacitance, to account for variation in cell size.
# To identify agonists that might modulate D3 receptor tolerance and SRT properties, ten distinct agonists were screened for their ability to induce tolerance and SRT, using the D3 receptor-GIRK channel signaling pathway as an assay.
# Target sequence in this assay (P35462 other isoform, or with tags, fused parts or gaps): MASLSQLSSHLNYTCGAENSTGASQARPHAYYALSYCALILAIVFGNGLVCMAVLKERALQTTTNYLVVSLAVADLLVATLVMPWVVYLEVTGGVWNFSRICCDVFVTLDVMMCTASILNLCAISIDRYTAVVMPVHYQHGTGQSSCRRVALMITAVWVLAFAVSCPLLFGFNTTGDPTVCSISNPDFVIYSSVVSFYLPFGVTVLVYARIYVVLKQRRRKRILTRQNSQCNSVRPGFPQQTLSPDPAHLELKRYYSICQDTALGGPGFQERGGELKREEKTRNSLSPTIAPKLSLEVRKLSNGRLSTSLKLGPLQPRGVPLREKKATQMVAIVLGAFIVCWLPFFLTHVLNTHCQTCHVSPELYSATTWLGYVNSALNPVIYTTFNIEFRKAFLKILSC
# D3 dopamine receptor [2] = target: T1, D3 dopamine receptor; assay: Current clamp recording of spontaneous action potentials in AtT-20 cells expressing D3; type: cell-based; details: 100 nM dopamine or 300 nM PBZI
# Target sequence in this assay (P35462 other isoform, or with tags, fused parts or gaps): as above
# c-fos expression = details: in vivo; cited from earlier work
# D3 dopamine receptor [3] = target: T1, D3 dopamine receptor; details: cited from earlier work
# Target sequence in this assay (P35462 whole entry): as the sequence (P35462 other isoform, or with tags, fused parts or gaps) above, with S9G counted along it
# D2S = D2S (Homo sapiens (Human), UniProt P14416); details: Scheideler et al., 1997; cited from earlier work
# Chain of D2S (P14416 other isoform, or with tags, fused parts or gaps): as the sequence (P14416 other isoform, or with tags, fused parts or gaps) above
# D1-like receptors = details: cited from earlier work
# D3 dopamine receptor [4] = target: T1, D3 dopamine receptor; assay: D3 receptor tolerance and SRT: GIRK response to repeated agonist application in AtT-20 cells; type: cell-based; details: 1000 nM PBZI applied simultaneously with 100 nM dopamine
# Target sequence in this assay (P35462 other isoform, or with tags, fused parts or gaps): as the sequence (P35462 other isoform, or with tags, fused parts or gaps) above
# Balb/c mice = assay: Locomotor activity (open field, TruScan) in Balb/c mice
# Protocol: Therefore, three different doses of the lead compound are administered and their effects on locomotor activity are determined. The dosage is determined based on the functional EC50 values and binding affinity of the lead compound from the cell-based assays described above. The compound is administered to Balb/c mice and locomotor activity is monitored using the TruScan Automated Behavioral Monitoring system (Coulborn Instruments).
# A total of 12 young adult, male Balb/c mice were obtained form Charles River, Inc. (Wilmington, Mass.), and housed in groups of four in standard cages. The animals were maintained on a 12 hour light/12 hour dark cycle and permitted ad lib access to food and water. Experiments were conducted during the animal's light phase. […] For PD128907, separate groups of Balb/c mice received subcutaneous injections of saline (n=4) or 0.05 or 0.4 mg/kg PD128907 (n=4, for each). Locomotion (‘distance traveled’) scores of drug-injected animals were collapsed across 10-min intervals and for comparison purposes were normalized to saline injected animals (FIG. 12A). The experiment was conducted on three separate occasions.
# Water solubility = type: physicochemical
structure (smiles),measurement,setting,value
CC(N)CCc1ccccc1Cl (stereo not shown) [ES609],monoamine transporter uptake activity,monoamine transporter,inhibits monoamine transporter uptake activity
same,GIRK current compared with quinpirole-induced current,D2S dopamine receptor; 100 nM,significantly less than the quinpirole-induced current
same,GIRK channel activation Ratio of ES609 to quinpirole response (at 300 nM),D2S dopamine receptor; 300 nM,0.30*
same,GIRK channel activation: agonist type,D2S dopamine receptor,partial agonists
same,GIRK channel activation: agonist type,D2S dopamine receptor; listed as ES0609,Partial
same,GIRK channel activation: agonist type,D4.2 dopamine receptor,elicited no response
same,GIRK channel activation EC50,"D4.2 dopamine receptor; AtT-20 cells, D4.2",No response
same,GIRK channel activation Ratio of ES609 to quinpirole response (at 300 nM),"D4.2 dopamine receptor; D4.2, 300 nM",0^††
same,GIRK response at 300 nM,"D4.2 dopamine receptor; D4.2, 300 nM","^††300 nM ES609 elicits no GIRK response; but, 300 nM quinpirole elicits a full GIRK response."
same,GIRK channel activation: agonist type,D4.2 dopamine receptor; listed as ES0609,no response
same,D3 receptor tolerance and SRT properties (agonist-induced GIRK response),D3 dopamine receptor [1],did not induce tolerance and SRT; also recorded: did not show tolerance and SRT
same,D3 receptor tolerance and SRT properties (agonist-induced GIRK response),D3 dopamine receptor [1]; listed as ES 609,also abolished D3 receptor tolerance and SRT properties
"CCCN1CC[C@@H]2c3cc(O)ccc3CC[C@@H]21 [PBZI, (3aS,9bR)-3-propyl-1,2,3a,4,5,9b-hexahydrobenzo[e]indol-8-ol]",inhibition of spontaneous action potentials on repeated application,D3 dopamine receptor [2],inhibited spontaneous action potentials during the first application and subsequent applications; also recorded: inhibited the spontaneous action potentials during the first and second treatment
same,c-fos expression in medial prefrontal cortex and shell region of nucleus accumbens,c-fos expression,specific increases in c-fos expression
same,Ki,"D3 dopamine receptor [3]; D3, Scheideler et al., 1997, read-out: Ki",27 nM
same,Ki,"D3 dopamine receptor [3]; source not stated, read-out: D3 dopamine receptor binding affinity Ki",22 nM
same,GIRK channel activation Ratio of PBZI to quinpirole response (at 300 nM),D2S dopamine receptor; 300 nM,0.48*
same,EC50,D2S dopamine receptor; AtT-20 cells,53 nM
same,GIRK channel activation: agonist type,D2S dopamine receptor,partial agonists
same,Ki,D2S,1800 nM
same,GIRK channel activation: agonist type,D4.2 dopamine receptor,partial agonist
same,GIRK channel activation Ratio of PBZI to quinpirole response (at 300 nM),"D4.2 dopamine receptor; D4.2, 300 nM",0.35*
same,"Binding at D1-like receptors and a panel of other neurotransmitter receptors, ion channels and transporters",D1-like receptors,negligible
same,competition with dopamine to block development of tolerance and SRT,D3 dopamine receptor [4],able to compete effectively with dopamine; also recorded: blocked the development of tolerance and SRT
same,D3 receptor tolerance and SRT properties (agonist-induced GIRK response),D3 dopamine receptor [1],does not elicit tolerance and SRT properties; also recorded: abolished both tolerance and SRT properties; also recorded: did not induce tolerance; also recorded: does not induce tolerance and SRT; also recorded: did not show either tolerance or SRT properties; also recorded: completely abolished the receptors' tolerance and SRT properties
same,D3 receptor tolerance and SRT properties (agonist-induced GIRK response),D3 dopamine receptor [1]; listed as cis-80H-PBZI,abolished the tolerance property
same,effect on locomotion,Balb/c mice; 1 mg/kg sc,no significant effect
same,reduction of locomotion,"Balb/c mice; 10 mg/kg sc, within 20-min",approximately 90%
same,duration of hypoactivity post-injection,"Balb/c mice; PBZI 10 mg/kg sc, PD128907 0.4 mg/kg sc",40 min
same,locomotor response,"Balb/c mice; sc, PBZI 10 mg/kg, PD128907 0.05-0.4 mg/kg, normalized to saline",only elicit hypoactivity; also recorded: monophasic hypoactive locomotor response; also recorded: dose-dependent and monophasic inhibition of locomotion
same,water solubility,Water solubility,water soluble

# — US9289400B2, “D3 dopamine receptor agonists to treat dyskinesia in parkinson's disease” (priority 2010, dated 2016)
